According to patent US9790189B2, “Disubstituted 5-fluoro pyrimidine derivatives containing a sulfondiimine group” (Bayer Pharma Aktiengesellschaft, priority 2014, dated 2017):
pIC50: −log10 of the molar value. ≈ marks a conversion by molar mass, not a printed value. Like-named read-outs stand apart in the source and are kept apart here.

Columns and labels:
CDK2/CycE [1] = biological target: T1, CDK2/CycE (Homo sapiens, UniProt P24941); test: CDK2/CycE kinase assay (TR-FRET, Method 2a)
CDK2/CycE [2] = biological target: T1, CDK2/CycE; test: CDK2/CycE high ATP kinase assay (TR-FRET, Method 2b)
HeLa cells = test: Proliferation assay, HeLa (crystal violet); assay type: cell-based; settings: Homo sapiens, 96 h, 4 days, read-out: Inhibition of HeLa cell proliferation IC50
Method: (§1) Cultivated tumour cells (HeLa, human cervical tumour cells, ATCC CCL-2; NCI-H460, human non-small cell lung carcinoma cells, ATCC HTB-177; A2780, human ovarian carcinoma cells, ECACC #93112519; DU 145, hormone-independent human prostate carcinoma cells, ATCC HTB-81; HeLa-MaTu-ADR, multidrug-resistant human cervical carcinoma cells, EPO-GmbH Berlin; Caco-2, human colorectal carcinoma cells, ATCC HTB-37; B16F10, mouse melanoma cells, ATCC CRL-6475) were plated at a density of 5,000 cells/well (DU145, HeLa-MaTu-ADR), 3,000 cells/well (NCI-H460, HeLa), 2,500 cells/well (A2780), 1,500 cells/well (Caco-2), or 1,000 cells/well (B16F10) in a 96-well multititer plate in 200 μL of their respective growth medium supplemented 10% fetal calf serum. After 24 hours, the cells of one plate (zero-point plate) were stained with crystal violet (see below), while the medium of the other plates was replaced by fresh culture medium (200 μl), to which the test substances were added in various concentrations (0 μM, as well as in the range of 0.001-10 μM; the final concentration of the solvent dimethyl sulfoxide was 0.5%). The cells were incubated for 4 days in the presence of test substances. Cell proliferation was determined by staining the cells with crystal violet: the cells were fixed by adding 20 μl/measuring point of an 11% glutaric aldehyde solution for 15 minutes at room temperature. After three washing cycles of the fixed cells with water, the plates were dried at room temperature. The cells were stained by adding 100 μl/measuring point of a 0.1% crystal violet solution (pH 3.0). After three washing cycles of the stained cells with water, the plates were dried at room temperature. The dye was dissolved by adding 100 μl/measuring point of a 10% acetic acid solution. The extinction was determined by photometry at a wavelength of 595 nm. The change of cell number, in percent, was calculated by normalization of the measured values to the extinction values of the zero-point plate (=0%) and the extinction of the untreated (0 μm) cells (=100%).

[3] = Equilibrium shake flask solubility, high throughput from DMSO solution (Method 4a); assay type: physicochemical; settings: phosphate buffer pH 6.5 with 1% DMSO, aqueous buffer, phosphate buffer pH 6.5, 24 hrs, room temperature
Source text: 4. Equilibrium Shake Flask Solubility Assays:
4a) High Throughput Determination of Aqueous Drug Solubility (100 mmolar in DMSO)
The high throughput screening method to determine aqueous drug solubility is based on:
Thomas Onofrey and Greg Kazan, Performance and correlation of a 96-well high throughput screening method to determine aqueous drug solubility, http://www.millipore.com/publications.nsf/a73664f9f981af8c852569b9005b4eee/e565516fb76e7435852 56da30052db77/$FILE/AN1731EN00.pdf
The assay was run in a 96-well plate format. Each well was filled with an individual compound.
All pipetting steps were performed using a robot platform.
100 μl of a 10 mmolar solution of drug in DMSO were concentrated by vacuum centrifugation and resolved in 10 μl DMSO. 990 μl phosphate buffer pH 6.5 were added. The content of DMSO amounts to 1%. The multititer plate was put on a shaker and mixed for 24 hrs at room temperature. 150 μl of the suspension were transferred to a filtration plate. After filtration using a vacuum manifold the filtrate was diluted 1:400 and 1:8000. A second microtiter plate with 20 μl of a 10 mM solution of drug in DMSO served for calibration. Two concentrations (0.005 μM and 0.0025 μM) were prepared by dilution in DMSO/water 1:1 and used for calibration. Filtrate and calibration plates were quantified by HPLC-MS/MS.
Preparation of 0.1 m Phosphate Buffer pH 6.5:
61.86 g NaCl and 39.54 mg KH2PO4 were solved in water and filled up to […]. The mixture was diluted 1:10 with water and the pH adjusted to 6.5 by NaOH.
Materials: • Millipore MultiScreenHTS-HV Plate 0.45 μm
Chromatographic conditions were as follows: • HPLC column: Ascentis Express C18 2.7 μm 4.6×30 mm • Injection volume: 1 μl • Flow: 1.5 ml/min • Mobile phase: acidic gradient • A: Water/0.05% HCOOH • B: Acetonitrile/0.05% HCOOH • 0 min→95% A 5% B • 0.75 min→5% A 95% B • 2.75 min→5% A 95% B • 2.76 min→95% A 5% B • 3 min→95% A 5% B
The areas of sample- and calibration injections were determined by using mass spectromety software (AB SCIEX: Discovery Quant 2.1.3. and Analyst 1.6.1). The calculation of the solubility value (in mg/l) was executed by an inhouse developed Excel macro.

B16F10 cells = test: Proliferation assay, B16F10 (crystal violet); assay type: cell-based; settings: Mus musculus, B16-F10, 96 h; B16F10, 4 days; read-out: Inhibition of B16F10 cell proliferation IC50
Method: as §1

HeLa-MaTu-ADR cells = test: Proliferation assay, HeLa-MaTu-ADR (crystal violet); assay type: cell-based; settings: Homo sapiens, 96 h, 4 days, read-out: Inhibition of HeLa-MaTu-ADR cell proliferation IC50
Method: as §1

DU145 cells = test: Proliferation assay, DU145 (crystal violet); assay type: cell-based; settings: Homo sapiens, DU-145, 96 h; DU145, 4 days; read-out: Inhibition of DU145 cell proliferation IC50
Method: as §1

A2780 cells = test: Proliferation assay, A2780 (crystal violet); assay type: cell-based; settings: Homo sapiens, 96 h; A2780, 4 days; read-out: Inhibition of A2780 cell proliferation IC50
Method: as §1

NCI-H460 cells = test: Proliferation assay, NCI-H460 (crystal violet); assay type: cell-based; settings: Homo sapiens, 96 h; NCI-H460, 4 days; read-out: Inhibition of NCI-H460 cell proliferation IC50
Method: as §1

Caco-2 cells = test: Proliferation assay, Caco-2 (crystal violet); assay type: cell-based; settings: Homo sapiens, 96 h; Caco-2, 4 days; read-out: Inhibition of Caco-2 cell proliferation IC50
Method: as §1

[4] = Caco-2 permeation assay (Method 5); assay type: in vitro ADME; settings: human; for Papp A→B at 2 h, 2 µM / Papp B→A at 2 h, 2 µM: pH 7.2, Caco-2, 2 μM test compound; for Papp A→B at 2 h, 2 µM: read-out: Papp A−B (Mari); for Papp B→A at 2 h, 2 µM: read-out: Papp B−A (Mari)
Method: Cells were maintained at 37° C. in a humidified 5% CO2 atmosphere. Medium was changed every 2-3 day. Before running the permeation assay, the culture medium was replaced by a FCS-free hepes-carbonate transport buffer (pH 7.2). For assessment of monolayer integrity the transepithelial electrical resistance (TEER) was measured. Test compounds were predissolved in DMSO and added either to the apical or basolateral compartment in final concentration of 2 μM in transport buffer. Before and after 2 h incubation at 37° C. samples were taken from both compartments. Analysis of compound content was done after precipitation with methanol by LC/MS/MS analysis. Permeability (Papp) was calculated in the apical to basolateral (A→B) and basolateral to apical (B→A) directions. […] The efflux ratio basolateral (B) to apical (A) was calculated by dividing the Papp B−A by the Papp A−B. In addition the compound recovery was calculated.

CDK9/CycT1 [5] = biological target: T2, CDK9/CycT1 (Homo sapiens, UniProt P50750); test: CDK9/CycT1 kinase assay (TR-FRET, Method 1a)
T2 sequence (P50750 whole entry): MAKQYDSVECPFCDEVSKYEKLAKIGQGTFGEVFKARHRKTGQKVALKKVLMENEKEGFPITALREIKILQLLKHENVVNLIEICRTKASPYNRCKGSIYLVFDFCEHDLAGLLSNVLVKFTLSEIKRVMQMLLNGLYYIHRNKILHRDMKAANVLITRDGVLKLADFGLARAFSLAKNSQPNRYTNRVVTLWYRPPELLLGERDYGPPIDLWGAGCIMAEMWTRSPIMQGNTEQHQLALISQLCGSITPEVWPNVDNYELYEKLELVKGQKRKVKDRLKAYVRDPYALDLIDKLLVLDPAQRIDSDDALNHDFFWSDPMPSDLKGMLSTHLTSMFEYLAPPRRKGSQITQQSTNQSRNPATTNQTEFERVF
T2 sequence (O60563 whole entry partner): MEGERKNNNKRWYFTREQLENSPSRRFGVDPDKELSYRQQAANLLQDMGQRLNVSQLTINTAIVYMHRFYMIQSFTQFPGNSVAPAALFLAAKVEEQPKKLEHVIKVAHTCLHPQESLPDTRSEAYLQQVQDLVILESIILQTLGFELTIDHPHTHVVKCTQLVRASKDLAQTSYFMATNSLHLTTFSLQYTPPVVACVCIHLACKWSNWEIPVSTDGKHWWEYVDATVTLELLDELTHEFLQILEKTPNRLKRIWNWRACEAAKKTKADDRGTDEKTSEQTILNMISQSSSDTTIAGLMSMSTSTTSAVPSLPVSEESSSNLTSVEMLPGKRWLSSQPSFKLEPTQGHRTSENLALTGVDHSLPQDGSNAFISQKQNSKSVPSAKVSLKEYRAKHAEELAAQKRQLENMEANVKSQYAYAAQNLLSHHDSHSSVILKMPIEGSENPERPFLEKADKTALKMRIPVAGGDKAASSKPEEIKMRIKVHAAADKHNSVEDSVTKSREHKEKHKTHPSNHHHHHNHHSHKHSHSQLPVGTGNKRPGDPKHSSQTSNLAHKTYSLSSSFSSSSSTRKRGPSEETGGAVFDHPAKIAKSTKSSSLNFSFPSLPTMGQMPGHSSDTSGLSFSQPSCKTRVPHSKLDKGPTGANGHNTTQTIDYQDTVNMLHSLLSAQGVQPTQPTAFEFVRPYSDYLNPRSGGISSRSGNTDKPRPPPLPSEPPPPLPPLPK

MOLM-13 cells = test: Proliferation assay, MOLM-13 (Cell Titre-Glo); assay type: cell-based; settings: Homo sapiens; MOLM-13, 72-hour exposure; read-out: Inhibition of MOLM-13 cell proliferation IC50
Method: Non-adherent MOLM-13 human acute myeloid leukemia cells (DSMZ ACC 554) were seeded at a density of 5,000 cells/well in a 96-well multititer plate in 100 μL of growth medium supplemented 10% fetal calf serum. After 24 hours, cell viability of one plate (zero-point plate) was determined with the Cell Titre-Glo Luminescent Cell Viability Assay (Promega), while 50 μL of test compound containing medium was added to the wells of the other plates (final concentrations in the range of 0.001-10 μM and DMSO controls; the final concentration of the solvent dimethyl sulfoxide was 0.5%). Cell viability was assessed after 72-hour exposure with the Cell Titre-Glo Luminescent Cell Viability Assay (Promega).

CDK9/CycT1 [6] = biological target: T2, CDK9/CycT1

| pIC50 (CDK2/CycE [1]) | pIC50 (CDK2/CycE [2]) | pIC50 (HeLa cells) | solubility thermodynamic at 24 h [3] | pIC50 (B16F10 cells) | pIC50 (HeLa-MaTu-ADR cells) | pIC50 (DU145 cells) | pIC50 (A2780 cells) | pIC50 (NCI-H460 cells) | pIC50 (Caco-2 cells) | Papp A→B at 2 h, 2 µM [4] | Papp B→A at 2 h, 2 µM [4] | pIC50 (CDK9/CycT1 [5]) | Selectivity CDK9 over CDK2: IC50 (CDK2)/IC50 (CDK9) (CDK9/CycT1 [5]; Methods 1a and 2a) | pIC50 (MOLM-13 cells) | pIC50 (CDK9/CycT1 [6]) | Selectivity high ATP CDK9 over high ATP CDK2: IC50 (high ATP CDK2)/IC50 (high ATP CDK9) (CDK9/CycT1 [6]; Methods 1b and 2b) | efflux ratio at 2 h, 2 µM ([4]; Caco-2, pH 7.2) | Structure (SMILES) |
| --- | --- | --- | --- | --- | --- | --- | --- | --- | --- | --- | --- | --- | --- | --- | --- | --- | --- | --- |
| 6.01 | 4.70 | 6.29 | 259 µg/mL (≈ 540 µM) |  |  |  |  |  |  |  |  |  |  |  |  |  |  | COc1cc(F)ccc1-c1nc(Nc2cc(F)cc(CS(C)(=N)=NCCCO)c2)ncc1F (racemic) [Example 6, (rac)-3-{[(3-Fluoro-5-{[5-fluoro-4-(4-fluoro-2-methoxyphenyl)pyrimidin-2-yl]amino}benzyl)(imino)methyl-λ^6-sulfanylidene]amino}propan-1-ol] |
| 5.89 | 4.89 | 6.39 | 97 µg/mL (≈ 223 µM) | 5.95 | 6.10 | 6.20 | 6.48 | 6.01 | 6.07 |  |  |  |  |  |  |  |  | CN=S(C)(=N)Cc1cc(F)cc(Nc2ncc(F)c(-c3ccc(F)cc3OC)n2)c1 (racemic) [Example 2, (rac)-N-{3-[(N,S-Dimethylsulfonodiimidoyl)methyl]-5-fluorophenyl}-5-fluoro-4-(4-fluoro-2-methoxyphenyl)pyrimidin-2-amine] |
| 5.85 |  | 6.00 | 1.4 µg/mL (≈ 2.81 µM) | 5.90 | 6.06 | 5.98 | 6.26 | 5.96 | 6.00 |  |  |  |  |  |  |  |  | COc1cc(F)ccc1-c1nc(Nc2cc(F)cc(CS(C)(=N)=Nc3ccccc3)c2)ncc1F (racemic) [Example 3, (rac)-5-Fluoro-4-(4-fluoro-2-methoxyphenyl)-N-{3-fluoro-5-[(S-methyl-N-phenylsulfonodiimidoyl)methyl]phenyl}pyrimidin-2-amine] |
| 6.24 | 5.37 | 6.27 |  | 5.95 | 6.16 | 6.24 | 6.45 | 6.03 | 6.07 |  |  |  |  |  |  |  |  | C#CCN=S(C)(=N)Cc1cc(F)cc(Nc2ncc(F)c(-c3ccc(F)cc3OC)n2)c1 (racemic) [Example 4, (rac)-5-Fluoro-4-(4-fluoro-2-methoxyphenyl)-N-(3-fluoro-5-{[S-methyl-N-(prop-2-yn-1-yl)sulfonodiimidoyl]methyl}phenyl)pyrimidin-2-amine] |
| 6.72 | 5.83 | 7.14 |  | 6.91 | 7.10 | 7.38 | 7.46 | 6.71 | 7.03 | 2.88 ×10⁻⁶ cm/s | 19.9 ×10⁻⁶ cm/s |  |  |  |  |  |  | COc1cc(F)ccc1-c1nc(Nc2cc(F)cc(CS(C)(=N)=NC#N)c2)ncc1F (racemic) [Example 5, (rac)-[(3-Fluoro-5-{[5-fluoro-4-(4-fluoro-2-methoxyphenyl)pyrimidin-2-yl]amino}benzyl)(imino)methyl-λ^6-sulfanylidene]cyanamide] |
| 5.64 | ≤ 4.70 | 6.46 | 1.2 µg/mL (≈ 2.32 µM) |  |  |  | 6.47 |  |  | 3.21 ×10⁻⁶ cm/s | 3.57 ×10⁻⁶ cm/s | 7.77 | 135 | 6.61 | 7.59 | 769 | 1.1 | CS(=N)(=N)Cc1cc(Nc2ncc(F)c(-c3ccc(F)cc3F)n2)cc(S(F)(F)(F)(F)F)c1 [Example 7, 4-(2,4-Difluorophenyl)-5-fluoro-N-{3-[(S-methylsulfonodiimidoyl)methyl]-5-(pentafluoro-λ^6-sulfanyl)phenyl}pyrimidin-2-amine] |
| 6.40 | 5.52 | 6.98 | 2.2 µg/mL (≈ 4.15 µM) | 6.63 | 6.71 | 6.89 |  | 6.83 | 6.84 | 3.33 ×10⁻⁶ cm/s | 5.19 ×10⁻⁶ cm/s |  |  | 7.44 |  |  |  | COc1cc(F)ccc1-c1nc(Nc2cc(CS(C)(=N)=N)cc(S(F)(F)(F)(F)F)c2)ncc1F [Example 8, 5-Fluoro-4-(4-fluoro-2-methoxyphenyl)-N-{3-[(S-methylsulfonodiimidoyl)methyl]-5-(pentafluoro-λ^6-sulfanyl)phenyl}pyrimidin-2-amine] |
